Experimental data published in article PMC7041945, “Misfolded proteins bind and activate death receptor 5 to trigger apoptosis during unresolved endoplasmic reticulum stress” (eLife, 2020).

Legend:
MPZ = assay: qPCR of transfected MPZ transcript (primers 296+297), normalized to GAPDH; type: cell-based; details: qPCR Rep 2, WT MPZ GFP 1000 ng, or empty traffo + Tg; for 2^-(deltaCq), MPZ: vs avg GAPDH
[1] = test system: DR5 / ERGIC53 / giantin in HCT116 cells; assay: Immunofluorescence co-localization (Pearson's correlation per cell); type: cell-based, Homo sapiens
Protocol: HCT116 were seeded at 25000 cells per well in an 8-well glass-bottom μSlide (Ibidi 80827) pre-coated with Collagen IV (Sigma-Aldrich C6745, 0.03 mg/ml in PBS incubated for 30 min at RT, and then rinsed off with PBS x 3) in growth media 18 hr prior to transfection (see above for protocol). 24 hr post-transfection, the cells were fixed using 4% paraformaldehyde (PFA, Electron Microscopy Sciences) or methanol, depending on the antibody combination used for immunostaining (see table below). Samples were protected from light after fixation to preserve GFP fluorescence.
For fixation with 4% PFA, 32% PFA was added directly to the well in growth media for a 1:8 dilution and incubated for 10–15 min at RT. Cells were then permeabilized with PHEM buffer (60 mM PIPES, 25 mM HEPES, 10 mM EGTA, 2 mM MgCl2-hexahydrate, pH 6.9) containing 0.1% Triton-X100 for 10 min at RT for three washes.
For fixation with methanol, media was removed and cells were washed with cold PBS. Then methanol (pre-cooled at −20°C) was added to the well and incubated at −20°C for 3–4 min. The methanol was promptly aspirated and replaced with PHEM buffer (without Triton X-100), followed by two more 10 min washes with PHEM at RT.
To block against non-specific antibody interactions, cells were rinsed in PHEM (without 0.1% Triton X-100) and then incubated with PHEM containing 2% normal goat serum (Jackson Immunoresearch Laboratories, 005-000-121) for 1 hr at RT. Primary antibodies were incubated in blocking solution overnight at 4°C at the dilution noted in the table above. Cells were then washed with PHEM buffer for 10 min at RT x three and incubated with secondary antibodies, anti-mouse-AlexaFluor546 (Invitrogen A11030) and anti-rabbit-AlexaFluor633 (Invitrogen A21071), diluted 1:1000 in PHEM with 2% normal goat serum. (Secondary antibody solutions were centrifuged at 15000xg for 20 mins at 4°C to remove aggregates prior to incubating with cell samples.) After a 1 hr incubation at RT, cells were washed with PHEM buffer once, then incubated with PHEM buffer containing nuclear stain (DAPI, Molecular Probes, Eugene, OR, D-1306, 5 μg/mL), and finally rinsed with PHEM buffer twice before imaging.
Samples were imaged on a spinning disk confocal with Yokogawa CSUX A1 scan head, Andor iXon EMCCD camera, and 40x Plan Apo air Objective NA 0.95 or 100x ApoTIRF objective NA 1.49 (Nikon).
From the 405 nm channel, cell nuclei were identified as primary objects using maximum correlation thresholding (MCT) and shape to distinguish clumped objects. Secondary objects were outlined using propagation from the nuclei (DAPI) after applying MCT from the 488 nm, 561 nm, and 633 nm channels. Tertiary objects for each cell was identified as the mask of each nucleus subtracted from the mask of its corresponding secondary object in each channel, yielding masks for intracellular GFP-tagged protein from the 488 nm channel, for intracellular DR5 from the 561 nm channel, and for the organelle marker in the 633 nm channel. For overlap between DR5 and MPZ/RHO-GFP, Pearson’s correlation coefficients were calculated within the MPZ/RHO mask for each cell to filter out untransfected cells. For overlap between DR5/MPZ and organelle markers, Pearson’s correlation coefficients were calculated within tertiary objects for the organelle marker in GFP+ cells. Statistical analyses for all data sets were performed using GraphPad Prism 6.0.

[2] = test system: caspase 8 in HCT116 GFP-Trap immunoprecipitates; assay: Caspase 8 activity (caspase glo 8) of GFP immunoprecipitates (beads); type: cell-based, Homo sapiens; details: for Mean ± SEM (IP): GFPTrap beads, relative to GFP; for 95% confidence interval of difference (IP) / Difference between means (IP): vs. GFP
Protocol: 15 cm dishes were seeded with 4 million HCT116 cells and allowed to recover for 18 hr prior to transfection. Samples were then transfected for 24 hr with the GFP-tagged ER trafficked protein, cytosolic GFP, or empty vector. To harvest apoptotic and living cells for each sample, all media and washes were collected. Cells were scraped in 2 ml of cold PBS and combined with the media and washes. Samples were centrifuged to pellet cells, washed with 1 ml cold PBS, and flash frozen in liquid N2 prior to lysis.
The cell pellets were resuspended in 750 μl of 30 mM HEPES pH 7.2, 150 mM NaCl, 1% Triton X-100 with 1x Roche protease inhibitor cocktail (if used subsequently for caspase glo 8 assay) or with 5x Roche protease inhibitor cocktail (if used for immunoblotting). The cells were lysed by mechanical shearing through a 25G needle for 13–15 plunges followed by incubation on ice for 30 min. The lysate was centrifuged at 2000xg for 5 min to remove debris and then incubated with 30 μl of GFP-Trap magnetic agarose beads (Chromotek gtma-20) for 4 hr at 4°C. The beads were then washed with 750 μl of lysis buffer for 10 min at 4°C for three rounds.
For measuring caspase activity, a fifth of the beads was resuspended in 40 μl of 30 mM HEPES pH 7.2, 150 mM NaCl, 1% Triton X-100. 10 μl of the resuspended mixture was incubated with 10 ul of the caspase glo 8 luminogenic substrate (Promega #PRG8200) for 45 min at RT before measuring luminescence.

[3] = test system: XBP1 mRNA in HCT116 cells; assay: RT-PCR for Xbp1 mRNA splicing; type: cell-based, Homo sapiens; details: HCT116, 24 hr
Protocol: Cells were grown in 6-well plates and harvested with 0.5 ml of TRIzol reagent (Life Technologies) per manufacturer's protocol to extract RNA. […] The reverse transcription product was diluted to 200 μl with 10 mM Tris-HCl pH 8.2 and used at 1:100 dilution for subsequent RT-PCR reactions. 2 μl of cDNA was added to 0.2 μM of forward and reverse primers ([…]; Hs_XBP1_Rev: [NT]), 0.2 mM of each dNTP, 0.5 units of Taq DNA polymerase (Thermo Scientific). The reaction was set at an annealing temperature of 60.5°C with an extension time of 30 s for 26 cycles.

[4] = HCT116, 24 hr post-transfection, Mean ± SEM

Compound	fold change relative to GFP (GFPTrap beads) ([2]; Rep 1) [fold change]	fold change relative to GFP (GFPTrap beads) ([2]; Rep 2) [fold change]	fold change relative to GFP (GFPTrap beads) ([2]; Rep 3) [fold change]	GFPTrap beads RLUs ([2]; replicate 1) [RLUs]	GFPTrap beads RLUs ([2]; replicate 2) [RLUs]	GFPTrap beads RLUs ([2]; replicate 3) [RLUs]	95% confidence interval of difference (IP) [2]	Difference between means (IP) [2]	XBP1 mRNA splicing [3]	further results
C/C=C(/C)C(=O)O[C@H]1C(C)=C2[C@H]([C@@H]1OC(=O)CCCCCCC)[C@@](C)(OC(C)=O)C[C@H](OC(=O)CCC)[C@@]1(O)[C@H]2OC(=O)[C@@]1(C)O [thapsigargin, reference compound]	–	–	–	–	–	–	–	–	–	avg. fold induction relative to WT MPZ DMSO, MPZ (MPZ; mean of 3): 9.712 fold; fold induction relative to WT MPZ DMSO, MPZ (MPZ; replicate 1): 3.402 fold; fold induction relative to WT MPZ DMSO, MPZ (MPZ; replicate 2): 14.9405 fold; fold induction relative to WT MPZ DMSO, MPZ (MPZ; replicate 3): 10.7918 fold; 2^-(deltaCq), MPZ (MPZ; replicate 1): 0.0001664; 2^-(deltaCq), MPZ (MPZ; replicate 2): 0.0007308; 2^-(deltaCq), MPZ (MPZ; replicate 3): 0.0005279
FTWRYQPEGGRDAISIFHYA [MPZ-ecto peptide-eGFP, expressed construct: MPZ ectodomain replaced by the MPZ-ecto peptide, GFP-tagged]	–	–	–	–	–	–	–	–	–	Pearson's correlation per cell of GFP-tagged peptide with DR5 [1, 4]: 0.23 ± 0.04; Pearson's correlation per cell of GFP-tagged peptide with ERGIC [1, 4]: 0.18 ± 0.04; Pearson's correlation per cell between DR5 and ERGIC ([1]; HCT116 expressing GFP-tagged peptide, 24 hr, Mean ± SEM): 0.34 ± 0.03
INS-GFP: GFP-tagged proinsulin expressed from plasmid	1.64	0.68	1.36	115.391	47.845	95.69	0.1175 to 0.8825	0.5000 ± 0.1202	induced XBP1 mRNA splicing	Mean ± SEM (IP) ([2]; n=2): 1.500 ± 0.1400, n=2
RHO-GFP: GFP-tagged rhodopsin expressed from plasmid	4.68	4.56	5.28	329.286	320.842	371.502	3.209 to 4.472	3.840 ± 0.2275	induced XBP1 mRNA splicing	caspase 8 activity of immunoprecipitates ([2]; GFP pulldown): enriched for DR5 protein and caspase 8 activity more robustly than INS-GFP; Mean ± SEM (IP) ([2]; n=3): 4.840 ± 0.2227, n=3; average fold change relative to GFP (GFPTrap beads) ([2]; average of replicates): 4.84 fold change; overlap (mean Pearson's correlation) with DR5 signal ([1]; versus 90° rotated images, 24 hr): statistically significant overlap with DR5 signal
